Results published in patent US5508311A, “Aliphatic propargylamines as selective MAO-B inhibitors and as neuroprotective agents” (University of Saskatchewan, priority 1993, dated 1996).
Counter-ions that a name gives are not always drawn. Like-named read-outs stand apart in the source and are kept apart here.

Experiments:
[1] = target: T1, MAO-B (Mus musculus, UniProt Q8BW75); assay: in vivo; format: in vivo; conditions: for ED50: read-out: PE ID50; for Ratio MAO-A/MAO-B: 120 min
T1 construct: MAO activities in the mouse brain after; from tissue
T1 sequence (Q8BW75 1-520): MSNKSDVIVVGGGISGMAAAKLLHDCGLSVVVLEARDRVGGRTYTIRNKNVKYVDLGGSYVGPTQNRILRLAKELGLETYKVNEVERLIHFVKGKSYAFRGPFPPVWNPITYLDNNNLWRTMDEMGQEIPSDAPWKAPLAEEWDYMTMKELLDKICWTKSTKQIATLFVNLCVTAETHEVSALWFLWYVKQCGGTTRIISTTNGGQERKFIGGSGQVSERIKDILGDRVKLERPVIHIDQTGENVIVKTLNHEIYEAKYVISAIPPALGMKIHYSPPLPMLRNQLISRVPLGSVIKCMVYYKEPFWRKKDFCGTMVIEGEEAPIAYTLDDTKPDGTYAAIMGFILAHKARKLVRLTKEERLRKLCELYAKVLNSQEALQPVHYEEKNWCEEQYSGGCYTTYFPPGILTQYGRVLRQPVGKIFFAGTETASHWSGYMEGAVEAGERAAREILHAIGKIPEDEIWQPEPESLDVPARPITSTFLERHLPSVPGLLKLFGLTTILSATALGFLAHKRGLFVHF
Protocol: (§1) Albino Swiss mice were used in this study. The animals were injected intraperitoneally with different doses of the aliphatic propargylamines in 100 μL saline.
(§2) 0.5, 1, 2, 5, 10, 20, 50, 100 mg/Kg. Striata were dissected from the brai
(§3) two hours after i.p. administration of the drugs. MAOA and MAOB activitie
(§4) were determined immediately. The values were estimated from doseresponse

[2] = target: T2, MAO-B (Rattus norvegicus, UniProt P19643); assay: biochemical; format: biochemical; conditions: for IC50: read-out: PE IC50
T2 sequence (P19643 1-520): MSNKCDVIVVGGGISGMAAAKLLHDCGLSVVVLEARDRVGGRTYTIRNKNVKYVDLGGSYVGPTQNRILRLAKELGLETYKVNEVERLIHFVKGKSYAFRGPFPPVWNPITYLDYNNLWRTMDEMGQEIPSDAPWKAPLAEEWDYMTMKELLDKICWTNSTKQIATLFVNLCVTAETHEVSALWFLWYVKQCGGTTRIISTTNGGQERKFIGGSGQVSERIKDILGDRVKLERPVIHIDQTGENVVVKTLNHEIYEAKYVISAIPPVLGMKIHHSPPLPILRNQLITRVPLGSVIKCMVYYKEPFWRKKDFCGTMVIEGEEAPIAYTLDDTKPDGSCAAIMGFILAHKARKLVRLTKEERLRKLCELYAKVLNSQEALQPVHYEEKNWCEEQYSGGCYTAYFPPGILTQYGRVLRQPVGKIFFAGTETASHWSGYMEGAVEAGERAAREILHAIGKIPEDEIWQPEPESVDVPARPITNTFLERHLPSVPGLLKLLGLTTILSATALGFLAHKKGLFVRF
Protocol: (§5) The aliphatic propargylamine inhibitors (from 1×10^-10 M to 1×10^-4 M) were preincubated with the MAO for 20 min. at ambient room temperature and then the residual enzyme activities were determined by addition of the substrates, followed by further incubation at 37° C. for 30 min. The enzymatic reactions were terminated by the addition of citric acid and the aldehyde products were extracted with toluene: ethyl acetate (1:1, v/v) and the radio-activities assessed in a scintillation counter.

[3] = target: T3, MAO-A (Rattus norvegicus, UniProt P21396); assay: biochemical; format: biochemical; conditions: substrate 5-HT (5 × 10^-4 M); rat liver MAO, in vitro; average of at least 3 independent experiments
T3 sequence (P21396 1-526): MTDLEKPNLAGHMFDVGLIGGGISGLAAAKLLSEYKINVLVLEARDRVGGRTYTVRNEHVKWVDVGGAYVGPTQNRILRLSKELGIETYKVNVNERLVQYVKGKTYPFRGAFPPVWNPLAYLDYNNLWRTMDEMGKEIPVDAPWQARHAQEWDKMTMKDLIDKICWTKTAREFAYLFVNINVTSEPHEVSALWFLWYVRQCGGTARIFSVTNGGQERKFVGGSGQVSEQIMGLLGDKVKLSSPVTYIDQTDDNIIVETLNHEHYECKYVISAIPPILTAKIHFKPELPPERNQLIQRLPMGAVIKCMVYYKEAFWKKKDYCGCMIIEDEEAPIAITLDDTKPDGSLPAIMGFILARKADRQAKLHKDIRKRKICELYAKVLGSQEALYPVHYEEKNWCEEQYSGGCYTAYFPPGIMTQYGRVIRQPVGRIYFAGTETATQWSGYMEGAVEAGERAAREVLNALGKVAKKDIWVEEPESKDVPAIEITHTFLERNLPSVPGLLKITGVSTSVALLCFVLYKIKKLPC
Protocol: as §5

[4] = target: T4, MAO-A (Mus musculus, UniProt Q64133); assay: in vivo; conditions: ip, read-out: 5-HT ID50
T4 construct: MAO activities in the mouse brain after; from tissue
T4 sequence (Q64133 1-526): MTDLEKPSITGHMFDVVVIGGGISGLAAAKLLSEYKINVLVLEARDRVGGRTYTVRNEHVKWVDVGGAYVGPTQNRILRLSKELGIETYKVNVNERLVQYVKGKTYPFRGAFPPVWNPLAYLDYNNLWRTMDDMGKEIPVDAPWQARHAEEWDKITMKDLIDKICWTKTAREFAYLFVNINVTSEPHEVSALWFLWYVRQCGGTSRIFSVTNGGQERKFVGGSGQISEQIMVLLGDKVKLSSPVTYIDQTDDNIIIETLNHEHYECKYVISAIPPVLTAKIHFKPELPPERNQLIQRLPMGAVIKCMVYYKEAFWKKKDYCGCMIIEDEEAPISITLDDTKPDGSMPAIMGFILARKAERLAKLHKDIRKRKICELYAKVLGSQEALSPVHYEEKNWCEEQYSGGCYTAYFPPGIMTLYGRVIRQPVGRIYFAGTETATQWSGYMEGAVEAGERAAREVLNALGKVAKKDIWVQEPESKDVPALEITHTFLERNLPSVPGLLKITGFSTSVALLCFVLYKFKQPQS
Protocol: as §1, §2, §3, §4

[5] = test system: noradrenaline neurons; assay: Protection of noradrenaline neurons against DSP-4 induced neurotoxicity in the mouse brain; format: in vivo; conditions: Experiment II, pretreatment 10 mg/Kg i.p., mean ± S.E.
Protocol: The analyses of DSP-4-induced neurotoxic effects were conducted in accordance with […] and Jonsson (Eur. J. Pharmacol. 103 (1984), 269-278), hereby incorporated by reference. Mice were pretreated with M-2-PP (10 mg/Kg) and 2-HxMP (10 mg/Kg) or saline as control via i.p. administration and one hour later challenged with a single i.p. dose of DSP-4 (DSP-4: […] One week after treatment noradrenaline content in the putamen of these mice was analyzed. The results which are shown in Table 5 are mean ± S.E. of five animals in each group.

[6] = target: T1, MAO-B; assay: MAO-B activity in the mouse brain after oral administration (substrate PE); format: in vivo; conditions: 2 hours; for ED50: mouse, oral, average of 5 animals per dose, estimated from dose response curves, read-out: Inhibition of MAO-B activity, dose response (ID50); for Relative activity PE: oral 10 mg/Kg, PE (1.9 × 10^-5 M), mean ± standard error, saline = 100
Protocol: (§6) Table 3 indicates the MAO activities in the mouse brain following oral administration of the aliphatic propargylamines.
(§7) of each compound. Striata were dissected from the brain two hours after
(§8) the administration of the drugs. MAOA and MAOB activities were determined
Striata were dissected from the brain two
hours after oral administration of the drugs. MAOB activities were then
determined immediately. The values were estimated from doseresponse

[7] = human, in vivo; cited from earlier work
[8] = target: T4, MAO-A; format: in vivo
Protocol: as §6, §7, §8

[9] = mouse, in vivo
From the text: The acute toxicity of these compounds is quite low. […]. The aliphatic side-chains of these aliphatic propargyl compounds are similar to those that exist in endogenous lipids and fatty acids and such aliphatic chains are readily oxidized in vivo. […]

[10] = reported; cited from earlier work
[11] = target: monoamine oxidase; assay: Inhibition of rat liver monoamine oxidase deamination of dopamine (DA, mixed-type MAO A and B substrate) in vitro; format: biochemical; conditions: substrate DA (5 × 10^-4 M), average of at least 3 independent experiments
Protocol: as §5

[12] = test system: dopamine neurons; conditions: animal study (Tatton); cited from earlier work
[13] = test system: Parkinson's disease; conditions: Deprenyl alone; cited from earlier work
[14] = Solubility in water; conditions: free base
[15] = test system: dopamine neurons; assay: Protection of dopamine neurons against MPTP-induced neurotoxicity in the mice brain; format: in vivo, mouse
From the text: Three days later, dopamine levels and dopamine uptake site densities (GBR bindings) were estimated.

[16] = ID50 i.p. in mice versus IC50 in vitro
[17] = mouse, ip, 2 hours after administration, […], estimated from dose response curves
[18] = 2 hours after administration, 5-HT 5 × 10^-4 M, estimated from dose response curves

In the case of `C#CCN(C)C(C)CCCC.Cl` (stereo not drawn) [Example 2-HxMP, N-(2-Hexyl)-N-methylpropargylamine hydrochloride], the “MAO-B ID50 (mg/Kg) / IC50 ([…] × 10^-6 M)” value [1, 16] is reported as 2 (mg/Kg)/(1 × 10^-6 M), the ED50 [1, 17] is reported as 0.2 mg/kg and the “Ratio MAO-A/MAO-B” value ([1]; ratio of ID50 values, i.p.) is reported as 200. The “Ratio MAO-A/MAO-B” value ([2]; ratio of IC50 values, in vitro) was 1000, the IC50 [2] was 100 nM and the IC50 [3] was 100000 nM. For the same compound, the ED50 [4, 18] was 40 mg/kg, the Noradrenaline in putamen ([5]; DSP-4 50 mg/Kg, p < 0.01 vs DSP-4 (DSP-4 alone 56)) was 84 ± 0.04% and the Noradrenaline in putamen ([5]; saline, no DSP-4) was 104 ± 0.05%. For the same compound, the ED50 [6] was 1 mg/kg.
For `CC(C)NNC(=O)c1ccncc1` [Iproniazid], the “adverse effects leading to withdrawal” value [7] is listed as “hepatic toxicity and occasional hypertensive crises”.
In the case of `C#CCN(C)CCCC.Cl` [Example 1-BuMP, N-(1-Butyl)-N-methylpropargylamine hydrochloride], the “MAO-B ID50 (mg/Kg) / IC50 ([…] × 10^-6 M)” value [1, 16] is reported as 2 (mg/Kg)/(1 × 10^-6 M), the “inhibition of brain MAO-B activity in vivo (in words)” value ([1]; mouse, i.p., two hours after treatment) is reported as “more potent than the longer chain analogs at inhibiting brain MAO-B activity” and the ED50 [1, 17] is reported as 2 mg/kg. The “Ratio MAO-A/MAO-B” value ([1]; ratio of ID50 values, i.p.) was 50, the “Ratio MAO-A/MAO-B” value ([2]; ratio of IC50 values, in vitro) was 100 and the IC50 [2] was 1000 nM. The IC50 [3] was 100000 nM, the ED50 [4, 18] was 100 mg/kg and the “Relative activity 5-HT” value ([8]; oral 10 mg/Kg, 2 hours, 5-HT (5 × 10^-4 M), mean ± standard error, saline = 100) was 98 ± 5%. The “fatality after oral administration” value [9] was “no fatality”, the ED50 [6] was 15 mg/kg and the “Relative activity PE” value [6] was 67 ± 9%.
In the case of `C#CCN(C)[C@H](C)Cc1ccccc1` [Deprenyl], the LD50 [10] is listed as 445 mg/kg, the ED50 ([4]; 2 h) is listed as 25 mg/kg and the IC50 [11] is listed as 300 nM. The “protection of dopamine neurons after MPTP washed out” value [12] was “shown to protect dopamine neurons even after the MPTP has been completely washed out of the tissues” and the “onset of disability in early, otherwise untreated Parkinson's disease” value [13] was “can significantly delay the onset of disability”.
In the case of `C#CCN(C)C(C)CC.Cl.O=C(O)C(=O)O` (racemic) [Example 2-BuMP, N-(2-Butyl)-N-methylpropargylamine hydrochloride and oxalate], the “fatality after oral administration” value [9] is reported as “no fatality”.
In the case of `C#CCNC` [MP, N-Methylpropargylamine-HCl], the “PE IC50” value [2] is reported as “inactive”, the “5-HT IC50” value [3] is reported as “inactive” and the “DA IC50” value [11] is reported as “inactive”. The solubility in water [14] was “infinite”.
In the case of `C#CCN(C)CCCCC.O=C(O)C(=O)O` [Example M-1-PP, N-(1-Pentyl)-N-methylpropargylamine oxalate], the “MAO-B ID50 (mg/Kg) / IC50 ([…] × 10^-6 M)” value ([1]; mouse, in vivo, ip) is reported as 6.6, the “inhibition of brain MAO-B activity in vivo (in words)” value ([1]; mouse, in vivo, ip) is reported as “more potent than the longer chain analogs at inhibiting brain MAO-B activity” and the “Ratio MAO-A/MAO-B” value ([1]; mouse, in vivo, ip) is reported as 50. For the same compound, the ED50 ([1]; mouse, ip, 2 h) was 2 mg/kg, the “Ratio MAO-A/MAO-B” value ([2]; rat, liver mitochondrial membranes) was 200 and the IC50 [2] was 400 nM. For the same compound, the IC50 [3] was 100000 nM, the ED50 ([4]; 2 h) was 100 mg/kg and the “Relative activity 5-HT” value ([8]; mouse, in vivo, po, 10 mg/kg) was 97 ± 13. For the same compound, the “fatality after oral administration” value [9] was “no fatality”, the Dopamine ([15]; 2.0 mg/Kg + MPTP) was 3.1 μg/gm and the Dopamine binding site ([15]; 2.0 mg/Kg + MPTP) was 221 pmol/mg. The Dopamine ([15]; 10 mg/Kg + MPTP) was 9.0 μg/gm, the Dopamine binding site ([15]; 10 mg/Kg + MPTP) was 320 pmol/mg and the “Relative activity PE” value [6] was 72 ± 17%.
